Assay results as given in PubChem BioAssay AID977628 (Broad Institute, 2014).
Inconclusive results are not listed. Calls of active or inactive are those of the source.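 How the source made its calls: active means compound lowering the normal-ribosome reporter at least twice as much as the humanized-ribosome reporter, growth loss under a set limit; inconclusive means no clear call, values can overlap the other calls; inactive means the rest.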

Tested on: E. coli WT GFP strain growth, fluorescence, 24 h
Assay: growth of wild-type and h24-humanized E. coli strains – h24 mutant RFP vs wild-type GFP, cherry-pick, dose response (AID 977628)

SMILES | AC50
CCN(CC)S(=O)(=O)c1cccc(NC(=O)CNc2cccc(S(=O)(=O)N3CCCC3)c2)c1 | > 100 µM (inactive)
CCOC(=O)Cc1csc(NC(=O)c2cc3ccccc3o2)n1 | > 100 µM (inactive)
CCc1nc2ccccc2n1CCc1ccccc1 | > 100 µM (inactive)
CC1(C)CC(=O)c2cnc(N3CCc4ccccc43)nc2C1 | > 100 µM (inactive)
CCC(=O)Nc1nc2ccc(NC(=O)c3cc(OC)c(OC)c(OC)c3)cc2s1 | > 100 µM (inactive)
Cc1cc(Br)ccc1NC(=O)c1ccco1 | > 100 µM (inactive)
COc1ccccc1-c1ccc(SCc2ccc(F)cc2)nn1 | > 100 µM (inactive)
Fc1ccc(-c2nnc(-c3ccc4ccccc4c3)o2)cc1 | > 100 µM (inactive)
COc1cccc(NC(=O)C2CCC(CNS(=O)(=O)c3cccc4cccnc34)CC2)c1 (stereo not drawn) | > 100 µM (inactive)
CC(NCc1ccc(S(N)(=O)=O)cc1)C(=O)Nc1cc([N+](=O)[O-])ccc1Cl (stereo not drawn) | > 100 µM (inactive)
C=CCn1c(C)cc(C(=O)COC(=O)CNC(=O)c2ccccc2)c1C | > 100 µM (inactive)
Cc1ccc(C2NC(=O)c3[nH]nc(-c4ccccc4)c32)cc1 (stereo not drawn) | > 100 µM (inactive)
Cc1ccc(Cl)cc1N1CCN(C(=O)c2ccc3nc[nH]c3c2)CC1 | > 100 µM (inactive)
Cc1ccccc1OCC(O)Cn1c(NCc2ccco2)nc2c1c(=O)n(C)c(=O)n2C (stereo not drawn) | > 100 µM (inactive)
COc1cc2[nH]c(=S)nc(NCCc3ccc(C)cc3)c2cc1OC | > 100 µM (inactive)
CC1CCCN(C(=O)C(C)Nc2cc(Cl)ccc2N2CCOCC2)C1 (stereo not drawn) | > 100 µM (inactive)
O=C(c1cc(COc2ccc(F)cc2F)on1)N1CCCC(c2ccccc2)C1 (stereo not drawn) | > 100 µM (inactive)
Cc1ccc(N2C(=O)NC(NS(=O)(=O)c3ccccc3)(C(F)(F)F)C2=O)cc1C (stereo not drawn) | > 100 µM (inactive)
CCn1nc(C(=O)OCc2cccc(S(=O)(=O)N(C)C)c2)c2ccccc2c1=O | > 100 µM (inactive)
COc1cccc(NC(=O)c2ccc(-c3ccc([N+](=O)[O-])cc3)o2)c1 | > 100 µM (inactive)
Cc1cccc(CN2C(=O)c3ccccc3Sc3ccc(C(=O)O)cc32)c1 | > 100 µM (inactive)
CCn1nc(C)cc1C(=O)N1CCCC(C(=O)c2ccc3ccccc3c2)C1 (stereo not drawn) | > 100 µM (inactive)
COc1cccc(NC(=O)C2CCC(CNS(=O)(=O)c3cccs3)CC2)c1 (stereo not drawn) | > 100 µM (inactive)

SMILES | AC50
Cc1ccccc1-n1ncc2c1CC(C)(C)CC2NC(=O)CCN1Cc2ccccc2C1=O (stereo not drawn) | > 100 µM (inactive)
Cc1ccccc1-n1nnnc1SCCCC(=O)c1ccc(F)cc1 | > 100 µM (inactive)
O=C(O)CSc1nnc(-c2ccc(Cl)cc2Cl)n1-c1ccc(Br)cc1 | > 100 µM (inactive)
CC(C)=C(c1ccc(Cl)cc1)c1c(N)ncnc1N | > 100 µM (inactive)
CCC(C)C(=O)Nc1nc2ccc(OC)cc2s1 (stereo not drawn) | > 100 µM (inactive)
c1cncc(-c2nc3cc4ccccc4cc3[nH]2)c1 | > 100 µM (inactive)
O=C(c1cnc(Cc2c[nH]c3ccccc23)c(I)c1)N1CCCCC1 | > 100 µM (inactive)
COc1cc2nc(Nc3ccc(F)cc3)nc(N)c2cc1OC | > 100 µM (inactive)
O=C1c2ccccc2C(=O)N1CCc1c[nH]c2ccccc12 | > 100 µM (inactive)
COc1ccc(OC)c(-c2nn(-c3ccccc3)cc2C(=O)N2CCc3ccccc3C2)c1 | > 100 µM (inactive)
Cc1nn(C(C)(C)C)c(OC(=O)CC(C)C)c1S(=O)(=O)c1ccccc1 | > 100 µM (inactive)
COc1ccc(-c2cc(C(=O)N3CCc4ccccc4C3)no2)cc1 | > 100 µM (inactive)
COc1ccccc1CN1Cc2ccccc2Oc2ccccc2S1(=O)=O | > 100 µM (inactive)
COCCNc1cc(-c2ccccc2)nc2cc(-c3cccc(F)c3)nn12 | > 100 µM (inactive)
O=C(Cn1cnc2ccccc21)c1ccc(Br)cc1 | > 100 µM (inactive)
Cc1sc(NC(=O)CN2CCOCC2)nc1-c1ccc2c(c1)CCN2S(=O)(=O)c1ccccc1 | > 100 µM (inactive)
CC(Nc1ncnc2ccccc12)c1ccccc1 (stereo not drawn) | > 100 µM (inactive)
CCOC(=O)C1CCCN(C(=O)c2csc(-c3ccc4c(c3)CCO4)n2)C1 (stereo not drawn) | > 100 µM (inactive)
COc1ccc2[nH]cc(CCNC(=O)C3CC(=O)N(c4ccc(Cl)cc4)C3)c2c1 (stereo not drawn) | > 100 µM (inactive)
COc1ccc(OC)c(N(CC(=O)Nc2ccccc2F)S(=O)(=O)c2ccccc2)c1 | > 100 µM (inactive)
CN(C)CCN(C(=O)c1ccc2c(c1)CCCC2)c1nc2c(F)cccc2s1 | > 100 µM (inactive)
CCC(=O)c1ccc(OCC(=O)Nc2nc(C)cs2)cc1 | > 100 µM (inactive)
O=C(Nc1cc(F)ccc1F)N1CCCCN2[C@@H](CO)[C@H](c3ccc(-c4ccncc4)cc3)[C@@H]2C1 | > 100 µM (inactive)

SMILES | AC50
COC(=O)c1ccc(CN2CCCC(CO)(Cc3ccccc3F)C2)cc1 (stereo not drawn) | > 100 µM (inactive)
O=C(O)c1ccccc1Nc1cc(Cl)c2nonc2c1[N+](=O)[O-] | > 100 µM (inactive)
CC1C=Cc2ccccc2N1C(=O)c1ccccc1 (stereo not drawn) | > 100 µM (inactive)
CCOc1ccc2nc(SCC(=O)Nc3cccc(S(=O)(=O)NC4=NCCCCC4)c3)[nH]c2c1 | > 100 µM (inactive)
COc1ccc2nc(SCC(=O)Nc3ccccc3)[nH]c2c1 | > 100 µM (inactive)
CC1CCCCN1CC(O)COCCC12CC3CC(CC(C3)C1)C2 (stereo not drawn) | > 100 µM (inactive)
Cc1cc(C(=O)Nc2cccc3c2O[C@H](CN(C)S(=O)(=O)c2ccc(Cl)cc2)[C@H](C)CN([C@H](C)CO)C3=O)n(C)n1 | > 100 µM (inactive)
NC(=O)c1nsc(C(=O)N(c2ccccc2F)C(C(=O)NCc2ccc(F)cc2)c2ccc(O)cc2)c1N (stereo not drawn) | > 100 µM (inactive)
Cc1nnn(C23C[C@@H]4C[C@@H](CC(C(=O)N5CCN(c6ccccc6)CC5)(C4)C2)C3)n1 | > 100 µM (inactive)
COc1cccc(C(NC(C)=O)c2nc(-c3ccccc3OC)cs2)c1 (stereo not drawn) | > 100 µM (inactive)
COc1ccccc1NC(=O)CSc1nccn1Cc1ccc(F)cc1 | > 100 µM (inactive)
O=C(O)CCN(Cc1ccccc1)S(=O)(=O)c1ccccc1Cl | > 100 µM (inactive)
O=C(O)c1ccc(Oc2ccc([N+](=O)[O-])cc2)c([N+](=O)[O-])c1 | > 100 µM (inactive)
CCOc1ccccc1N1CCN(Cc2cn[nH]c2-c2ccc(F)cc2)CC1 | > 100 µM (inactive)
Nc1nc(Nc2ccccc2F)nc(N2CCOCC2)c1[N+](=O)[O-] | > 100 µM (inactive)
COc1cccc(CNC(=O)CCSCc2ccccc2F)c1 | > 100 µM (inactive)
CC(CCC(=O)O)C1CC[C@@]2(C)C3C(=O)CC4C(C)(C)C(O)CC[C@]4(C)C3C(=O)C[C@]12C (stereo partly drawn) | > 100 µM (inactive)
Cc1ccc(C(=O)Nc2cccc(N(C)S(C)(=O)=O)c2)cc1S(=O)(=O)Nc1ccccc1 | > 100 µM (inactive)
COc1ccc(-c2cc(C(=O)N(C)CCc3ccc(OC)c(OC)c3)c3ccccc3n2)cc1 | > 100 µM (inactive)
COc1ccc(C(=O)C2CCCN(C(=O)c3noc4c3CCCC4)C2)cc1F (stereo not drawn) | > 100 µM (inactive)
CC1Sc2ccc(S(=O)(=O)NCc3ccccc3)cc2NC1=O (stereo not drawn) | > 100 µM (inactive)
COC(=O)c1ccc2nc(-c3cccc(Br)c3)c(Cc3ccsc3)n2c1 | > 100 µM (inactive)
